Data published in US11000033B2, “Ketone or oxime compound, and herbicide” (NISSAN CHEMICAL CORPORATION, priority 2014, dated 2021).

How the values were obtained:
Format in all cases: in vivo
[1] = tested on: Scirpus juncoides; test: Test Example 1: herbicidal activity, application before weed generation in submerged conditions (symbol B); settings: application herbicide amount 320 g/ha
In short: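 Flooded alluvial soil (4 cm water) was mixed-sown with the three weed species, and 2.5-leaf rice seedlings were transplanted. On sowing day, a water-diluted emulsion at a predetermined rate was applied to the water surface. After 3 weeks in a 25–30 °C greenhouse, effect was scored 0–5.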

[2] = tested on: Avena fatua; test: Test Example 5: herbicidal effect by foliage application, plastic box (symbol I); settings: 320 g/ha, 3 weeks after application
In short: (§1)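 After sowing into sterilized diluvial soil and growing two weeks under glass at 25° C. to 30° C., seedlings receive a uniform foliar spray of diluted emulsion. Damage is judged visually three weeks on.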

[3] = tested on: Echinochloa crus-galli var. crus-galli; test: Test Example 4: herbicidal effect by soil treatment (symbol H); settings: for H: Echinochloa crus-galli var. crus-galli, herbicidal effect grade: 320 g/ha
In short: (§2)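 Seeds were sown in sterilized diluvial soil, covered with about 1.5 cm of soil, and the soil surface was sprayed with a water-diluted emulsion of the compound at a predetermined rate. Plants grew in a greenhouse at 25° C. to 30° C.; effects were scored visually 3 weeks after application.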

[4] = tested on: Digitaria ciliaris; test: Test Example 4: herbicidal effect by soil treatment (symbol F); settings: for F: Digitaria ciliaris, herbicidal effect grade: 320 g/ha
In short: as §2

[5] = tested on: Chenopodium album; test: Test Example 4: herbicidal effect by soil treatment (symbol O); settings: for O: Chenopodium album, herbicidal effect grade: 320 g/ha
In short: as §2

[6] = tested on: corn; test: Test Example 5: effect on crop by foliage application, plastic box (symbol c); settings: 320 g/ha, 3 weeks after application
In short: (§3)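 Sterilized diluvial soil, plastic box (21 × 13 × 7 cm); spot sowing, ~1.5 cm soil cover; greenhouse 25–30° C.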

[7] = tested on: rice; test: Test Example 4: effect on crop by soil treatment (symbol b); settings: for b: directly sowed rice plant, effect grade on crop: 320 g/ha
In short: (§4)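 Seeds were sown in spots on sterilized diluvial soil in a plastic box and covered with about 1.5 cm of soil. Plants were then grown in a greenhouse at 25° C. to 30° C.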

[8] = tested on: directly sowed rice plant; test: Test Example 3: effect on crop by foliage application, Wagner pot (symbol b); settings: application herbicide amount 320 g/ha
In short: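 Greenhouse culture at 25–30 °C of seeded rice, Cyperus difformis, Leptochloa chinensis and Echinochloa crus-galli var. crus-galli, in alluvial soil held under 0.1–0.5 cm of water in a Wagner pot.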

[9] = tested on: wheat; test: Test Example 5: effect on crop by foliage application, plastic box (symbol e); settings: 320 g/ha, 3 weeks after application
In short: as §3

[10] = tested on: Digitaria ciliaris; test: Test Example 5: herbicidal effect by foliage application, plastic box (symbol F); settings: 320 g/ha, 3 weeks after application
In short: as §1

[11] = tested on: Veronica persica; test: Test Example 5: herbicidal effect by foliage application, plastic box (symbol R); settings: 320 g/ha, 3 weeks after application
In short: as §1

[12] = tested on: rapeseed; test: Test Example 5: effect on crop by foliage application, plastic box (symbol g); settings: 320 g/ha, 3 weeks after application
In short: as §3

[13] = tested on: Lolium multiflorum Lam.; test: Test Example 4: herbicidal effect by soil treatment (symbol K); settings: for K: Lolium multiflorum Lam., herbicidal effect grade: 320 g/ha
In short: as §2

[14] = tested on: Avena fatua; test: Test Example 4: herbicidal effect by soil treatment (symbol I); settings: for I: Avena fatua, herbicidal effect grade: 320 g/ha
In short: as §2

[15] = tested on: rapeseed; test: Test Example 4: effect on crop by soil treatment (symbol g); settings: for g: rapeseed, effect grade on crop: 320 g/ha
In short: as §4

[16] = tested on: Chenopodium album; test: Test Example 5: herbicidal effect by foliage application, plastic box (symbol O); settings: 320 g/ha, 3 weeks after application
In short: as §1

[17] = tested on: Stellaria media; test: Test Example 5: herbicidal effect by foliage application, plastic box (symbol P); settings: 320 g/ha, 3 weeks after application
In short: as §1

[18] = application herbicide amount 320 g/ha

## CC(CC1CC(O)=C(c2c(C)cc(C)cc2C)C1=O)=NOCc1ccc(F)cc1 (centres unmarked) [1-136]
[1]
  Herbicidal effect grade, B: Scirpus juncoides: 5 (Herbicidal ratio of 90% or more (almost completely withered))
[2]
  I: Avena fatua, herbicidal effect (criteria 0-5): 4 (Herbicidal ratio of 70% or higher and lower than 90%)
[3]
  H: Echinochloa crus-galli var. crus-galli, herbicidal effect grade: 5 (Herbicidal ratio of 90% or more (almost completely withered))
[4]
  F: Digitaria ciliaris, herbicidal effect grade: 5 (Herbicidal ratio of 90% or more (almost completely withered))
[5]
  O: Chenopodium album, herbicidal effect grade: 0 (Herbicidal ratio of 5% or lower (almost no effect))
[6]
  c: corn, effect on crop (criteria 0-5): 3 (Herbicidal ratio of 40% or higher and lower than 70%)
[7]
  b: directly sowed rice plant, effect grade on crop: 2 (Herbicidal ratio of 20% or higher and lower than 40%)
[8]
  effect on crop b (directly sowed rice plant), grade 0-5: 5 (Herbicidal ratio of 90% or more (almost completely withered))
[9]
  e: wheat, effect on crop (criteria 0-5): 3 (Herbicidal ratio of 40% or higher and lower than 70%)
[10]
  F: Digitaria ciliaris, herbicidal effect (criteria 0-5): 5 (Herbicidal ratio of 90% or more (almost completely withered))
[11]
  R: Veronica persica, herbicidal effect (criteria 0-5): 2 (Herbicidal ratio of 20% or higher and lower than 40%)
[12]
  g: rapeseed, effect on crop (criteria 0-5): 4 (Herbicidal ratio of 70% or higher and lower than 90%)
[13]
  K: Lolium multiflorum Lam., herbicidal effect grade: 5 (Herbicidal ratio of 90% or more (almost completely withered))
[14]
  I: Avena fatua, herbicidal effect grade: 3 (Herbicidal ratio of 40% or higher and lower than 70%)
[15]
  g: rapeseed, effect grade on crop: 3 (Herbicidal ratio of 40% or higher and lower than 70%)
[16]
  O: Chenopodium album, herbicidal effect (criteria 0-5): 0 (Herbicidal ratio of 5% or lower (almost no effect))
[17]
  P: Stellaria media, herbicidal effect (criteria 0-5): 1 (Herbicidal ratio of 5% or higher and lower than 20%)

## CON=C(C)CC1CC(OC(C)=O)=C(c2c(C)cc(C)cc2C)C1=O (centres unmarked) [1-005]
[1]
  Herbicidal effect grade, B: Scirpus juncoides: 5 (Herbicidal ratio of 90% or more (almost completely withered))
[2]
  I: Avena fatua, herbicidal effect grade: 5 (Herbicidal ratio of 90% or more (almost completely withered))
[3]; [18]
  H (Echinochloa crus-galli var. crus-galli) herbicidal effect grade: 5 (Herbicidal ratio of 90% or more (almost completely withered))
[4]; [18]
  F (Digitaria ciliaris) herbicidal effect grade: 5 (Herbicidal ratio of 90% or more (almost completely withered))
[5]; [18]
  O (Chenopodium album) herbicidal effect grade: 0 (Herbicidal ratio of 5% or lower (almost no effect))
[6]
  c: corn, effect on crop grade: 5 (Herbicidal ratio of 90% or more (almost completely withered))
[7]; [18]
  b (directly sowed rice plant) effect on crop grade: 5 (Herbicidal ratio of 90% or more (almost completely withered))
[8]
  effect on crop b (directly sowed rice plant), grade 0-5: 5 (Herbicidal ratio of 90% or more (almost completely withered))
[9]
  e: wheat, effect on crop grade: 5 (Herbicidal ratio of 90% or more (almost completely withered))
[10]
  F: Digitaria ciliaris, herbicidal effect grade: 5 (Herbicidal ratio of 90% or more (almost completely withered))
[11]
  R: Veronica persica, herbicidal effect grade: 3 (Herbicidal ratio of 40% or higher and lower than 70%)
[12]
  g: rapeseed, effect on crop grade: 4 (Herbicidal ratio of 70% or higher and lower than 90%)
[13]; [18]
  K (Lolium multiflorum Lam.) herbicidal effect grade: 5 (Herbicidal ratio of 90% or more (almost completely withered))
[14]; [18]
  I (Avena fatua) herbicidal effect grade: 5 (Herbicidal ratio of 90% or more (almost completely withered))
[15]; [18]
  g (rapeseed) effect on crop grade: 4 (Herbicidal ratio of 70% or higher and lower than 90%)
[16]
  O: Chenopodium album, herbicidal effect grade: 3 (Herbicidal ratio of 40% or higher and lower than 70%)
[17]
  P: Stellaria media, herbicidal effect grade: 4 (Herbicidal ratio of 70% or higher and lower than 90%)

## CC(CC1CC(O)=C(c2c(C)cc(-n3cc(Cl)cn3)cc2C)C1=O)=NOCC(F)(F)F (centres unmarked) [9-010]
[1]
  B (Scirpus juncoides) herbicidal effect grade: 5 (Herbicidal ratio of 90% or more (almost completely withered))
[2]
  I: Avena fatua, herbicidal effect grade: 4 (Herbicidal ratio of 70% or higher and lower than 90%)
[3]; [18]
  Herbicidal effect grade, H: Echinochloa crus-galli var. crus-galli: 5 (Herbicidal ratio of 90% or more (almost completely withered))
[4]; [18]
  Herbicidal effect grade, F: Digitaria ciliaris: 5 (Herbicidal ratio of 90% or more (almost completely withered))
[5]; [18]
  Herbicidal effect grade, O: Chenopodium album: 0 (Herbicidal ratio of 5% or lower (almost no effect))
[6]
  c: corn, effect on crop grade: 3 (Herbicidal ratio of 40% or higher and lower than 70%)
[7]; [18]
  Effect on crop grade, b: directly sowed rice plant: 5 (Herbicidal ratio of 90% or more (almost completely withered))
[8]; Table 24
  b (directly sowed rice plant) effect on crop grade: 5 (Herbicidal ratio of 90% or more (almost completely withered))
[9]
  e: wheat, effect on crop grade: 0 (Herbicidal ratio of 5% or lower (almost no effect))
[10]
  F: Digitaria ciliaris, herbicidal effect grade: 5 (Herbicidal ratio of 90% or more (almost completely withered))
[11]
  R: Veronica persica, herbicidal effect grade: 3 (Herbicidal ratio of 40% or higher and lower than 70%)
[12]
  g: rapeseed, effect on crop grade: 3 (Herbicidal ratio of 40% or higher and lower than 70%)
[13]; [18]
  Herbicidal effect grade, K: Lolium multiflorum Lam.: 5 (Herbicidal ratio of 90% or more (almost completely withered))
[14]; [18]
  Herbicidal effect grade, I: Avena fatua: 4 (Herbicidal ratio of 70% or higher and lower than 90%)
[15]; [18]
  Effect on crop grade, g: rapeseed: 0 (Herbicidal ratio of 5% or lower (almost no effect))
[16]
  O: Chenopodium album, herbicidal effect grade: 3 (Herbicidal ratio of 40% or higher and lower than 70%)
[17]
  P: Stellaria media, herbicidal effect grade: 3 (Herbicidal ratio of 40% or higher and lower than 70%)

## CC(CC1CC(O)=C(c2c(C)cc(C)cc2C)C1=O)=NOCCS(C)(=O)=O (centres unmarked) [1-110]
[1]
  Herbicidal effect grade, B: Scirpus juncoides: 0 (Herbicidal ratio of 5% or lower (almost no effect))
[2]
  I: Avena fatua, herbicidal effect (criteria 0-5): 5 (Herbicidal ratio of 90% or more (almost completely withered))
[3]
  H: Echinochloa crus-galli var. crus-galli, herbicidal effect grade: 5 (Herbicidal ratio of 90% or more (almost completely withered))
[4]
  F: Digitaria ciliaris, herbicidal effect grade: 5 (Herbicidal ratio of 90% or more (almost completely withered))
[5]
  O: Chenopodium album, herbicidal effect grade: 0 (Herbicidal ratio of 5% or lower (almost no effect))
[6]
  c: corn, effect on crop (criteria 0-5): 5 (Herbicidal ratio of 90% or more (almost completely withered))
[7]
  b: directly sowed rice plant, effect grade on crop: 5 (Herbicidal ratio of 90% or more (almost completely withered))
[8]
  effect on crop b (directly sowed rice plant), grade 0-5: 5 (Herbicidal ratio of 90% or more (almost completely withered))
[9]
  e: wheat, effect on crop (criteria 0-5): 5 (Herbicidal ratio of 90% or more (almost completely withered))
[10]
  F: Digitaria ciliaris, herbicidal effect (criteria 0-5): 5 (Herbicidal ratio of 90% or more (almost completely withered))
[11]
  R: Veronica persica, herbicidal effect (criteria 0-5): 3 (Herbicidal ratio of 40% or higher and lower than 70%)
[12]
  g: rapeseed, effect on crop (criteria 0-5): 5 (Herbicidal ratio of 90% or more (almost completely withered))
[13]
  K: Lolium multiflorum Lam., herbicidal effect grade: 5 (Herbicidal ratio of 90% or more (almost completely withered))
[14]
  I: Avena fatua, herbicidal effect grade: 4 (Herbicidal ratio of 70% or higher and lower than 90%)
[15]
  g: rapeseed, effect grade on crop: 1 (Herbicidal ratio of 5% or higher and lower than 20%)
[16]
  O: Chenopodium album, herbicidal effect (criteria 0-5): 2 (Herbicidal ratio of 20% or higher and lower than 40%)
[17]
  P: Stellaria media, herbicidal effect (criteria 0-5): 3 (Herbicidal ratio of 40% or higher and lower than 70%)
